pIC50: −log10 of the molar value.

Details in all cases: Homo sapiens
Experiment [1] relates to HeLa. Description: Antitumor activity against HeLa cells by MTT assay. The experiment is classed as functional, cell-based. (In general: Tetrazolium assays rely on reduction of a dye to a coloured formazan, in cell work by metabolically active cells.)
Experiment [2] deals with HeLa. In words: Antitumor activity against HeLa cells at 10 nM by MTT assay. The experiment is classed as functional.
Experiment [3] deals with HeLa. Description: Antitumor activity against HeLa cells at 1 uM by MTT assay. The format is functional.
The subject of experiment [4] is HeLa. In words: Antitumor activity against HeLa cells at 10 uM by MTT assay. The experiment is classed as functional.
Experiment [5] relates to HeLa. In words: Antitumor activity against HeLa cells at 0.1 uM by MTT assay. The experiment is classed as functional.

For `C[C@H](CCC(=O)[C@@H](C)[C@H]1C(=O)C[C@H]2[C@@H]3CC=C4C[C@@H](O[C@@H]5OC[C@H](O)[C@H](O)[C@H]5O)CC[C@]4(C)[C@H]3CC[C@]12C)CO[C@@H]1O[C@@H](CO)[C@H](O)[C@@H](O)[C@@H]1O`, the negative logarithm of the IC50 (pIC50) (commonly −log10 of the IC50, conventionally taken in molar units) in the experiment on HeLa [1] is under 5.00. Further, the inhibition – broadly, how much of the control response was suppressed – at 0.01 µM with HeLa [2] was found to be 3.25%. This compound had an inhibition at 1 µM in the experiment with HeLa [3] of 4.79%. In addition, in the experiment on HeLa [4], the inhibition at 10 µM stood at 9.71%. Further, in the experiment with HeLa [5], the inhibition at 0.1 µM worked out at 3.84%.
For `C[C@H](CCC(=O)[C@@H](C)[C@H]1C(=O)C[C@H]2[C@@H]3CC=C4C[C@@H](O[C@@H]5O[C@H](CO)[C@@H](O)[C@H](O)[C@H]5O)CC[C@]4(C)[C@H]3CC[C@]12C)CO[C@@H]1O[C@H](CO)[C@@H](O)[C@H](O)[C@H]1O`, in that order: under 5.00, 0.46%, 2.31%, 3.46% and 1.78%.
In turn, `C[C@H](CCC(=O)[C@@H](C)[C@H]1C(=O)C[C@H]2[C@@H]3CC=C4C[C@@H](O[C@@H]5OC[C@@H](O)[C@H](O)[C@H]5O)CC[C@]4(C)[C@H]3CC[C@]12C)CO[C@@H]1OC[C@@H](O)[C@H](O)[C@H]1O` gave a pIC50 in the experiment on HeLa [1] of under 5.00. The same compound gave an inhibition at 0.01 µM in the experiment with HeLa [2] of 6%. In addition, in the experiment with HeLa [3], testing at 1 µM gave an inhibition of 16.3%. For the same compound, the inhibition at 10 µM with HeLa [4] was 17.6%. The compound further registered an inhibition at 0.1 µM in the experiment on HeLa [5] of 14.2%.
The matching figures for `C[C@H](CCC(=O)[C@@H](C)[C@H]1C(=O)C[C@H]2[C@@H]3CC=C4C[C@@H](O[C@@H]5OC[C@@H](O)[C@H](O)[C@H]5O)CC[C@]4(C)[C@H]3CC[C@]12C)CO[C@@H]1O[C@H](CO)[C@@H](O)[C@H](O)[C@H]1O`: under 5.00, 17.5%, 23%, 30.9% and 19.3%.
The matching figures for `C[C@H](CCC(=O)[C@@H](C)[C@H]1C(=O)C[C@H]2[C@@H]3CC=C4C[C@@H](O[C@@H]5OC[C@H](O)[C@H](O)[C@H]5O)CC[C@]4(C)[C@H]3CC[C@]12C)CO[C@@H]1O[C@@H](C)[C@H](O)[C@@H](O)[C@H]1O`: under 5.00, 6.36%, 9.25%, 10.3% and 7.51%.
For `CC(=O)OC[C@H](C)CCC(=O)[C@@H](C)[C@H]1C(=O)C[C@H]2[C@@H]3CC=C4CC(OC(=O)c5ccccc5)CC[C@]4(C)[C@H]3CC[C@]12C` (stereo not given in full), in that order: under 5.00, 8.33%, 11%, 18.5% and 12.1%.
Take `C[C@H](CCC(=O)[C@@H](C)[C@H]1C(=O)C[C@H]2[C@@H]3CC=C4C[C@@H](O[C@@H]5O[C@H](CO)[C@@H](O)[C@H](O)[C@H]5O)CC[C@]4(C)[C@H]3CC[C@]12C)CO[C@@H]1O[C@@H](C)[C@H](O)[C@@H](O)[C@H]1O`: the pIC50 in the experiment on HeLa [1] is under 5.00. Further, testing at 0.01 µM in the experiment with HeLa [2] gave an inhibition of 3.42%. At 1 µM the inhibition with HeLa [3] was 9.94%. The compound also yielded an inhibition at 10 µM with HeLa [4] of 10.5%. The same compound yielded an inhibition at 0.1 µM in the experiment with HeLa [5] of 7.16%.
For `C[C@H](CCC(=O)[C@@H](C)[C@H]1C(=O)C[C@H]2[C@@H]3CC=C4C[C@@H](O[C@@H]5O[C@H](CO)[C@@H](O)[C@H](O)[C@H]5O)CC[C@]4(C)[C@H]3CC[C@]12C)CO[C@@H]1OC[C@H](O)[C@H](O)[C@H]1O`, in that order: under 5.00, 0.87%, 3.67%, 4.36% and 1.05%.
The matching figures for `C[C@H](CCC(=O)[C@@H](C)[C@H]1C(=O)C[C@H]2[C@@H]3CC=C4C[C@@H](O[C@@H]5O[C@@H](C)[C@H](O)[C@@H](O)[C@H]5O)CC[C@]4(C)[C@H]3CC[C@]12C)CO[C@@H]1OC[C@@H](O)[C@H](O)[C@H]1O`: under 5.00, 13.6%, 20.7%, 28.5% and 20.1%.
The matching figures for `C[C@H](CCC(=O)[C@@H](C)[C@H]1C(=O)C[C@H]2[C@@H]3CC=C4C[C@@H](O[C@@H]5O[C@@H](C)[C@H](O)[C@@H](O)[C@H]5O)CC[C@]4(C)[C@H]3CC[C@]12C)CO[C@@H]1O[C@H](CO)[C@@H](O)[C@H](O)[C@H]1O`: under 5.00, 0.16%, 1.67%, 15.1% and 1.66%.
For `C[C@H](CCC(=O)[C@@H](C)[C@H]1C(=O)C[C@H]2[C@@H]3CC=C4C[C@@H](O[C@@H]5OC[C@@H](O)[C@H](O)[C@H]5O)CC[C@]4(C)[C@H]3CC[C@]12C)CO[C@@H]1OC[C@H](O)[C@H](O)[C@H]1O`, the negative-log IC50 (pIC50) in the experiment on HeLa [1] was under 5.00. In the experiment on HeLa [2], this compound had an inhibition at 0.01 µM of 0.68%. In the experiment on HeLa [3], this compound came in with an inhibition at 1 µM of 10.6%. Besides, in the experiment with HeLa [4], the inhibition at 10 µM worked out at 30.9%. Further, in the experiment on HeLa [5], 0.1 µM produced 5.45% inhibition.
The matching figures for `C[C@H](CCC(=O)[C@@H](C)[C@H]1C(=O)C[C@H]2[C@@H]3CC=C4C[C@@H](O[C@@H]5O[C@@H](C)[C@H](O)[C@@H](O)[C@H]5O)CC[C@]4(C)[C@H]3CC[C@]12C)CO[C@@H]1OC[C@H](O)[C@H](O)[C@H]1O`: 5.08, 1.35%, 6.34%, 60.1% and 6.93%.
The matching figures for `C[C@H](CCC(=O)[C@@H](C)[C@H]1C(=O)C[C@H]2[C@@H]3CC=C4C[C@@H](O[C@@H]5O[C@H](CO)[C@@H](O)[C@H](O)[C@H]5O)CC[C@]4(C)[C@H]3CC[C@]12C)CO[C@@H]1OC[C@@H](O)[C@H](O)[C@H]1O`: under 5.00, 7.95%, 14.5%, 24.8% and 12.8%.
The matching figures for `C[C@@H](CO)CCC(=O)[C@@H](C)[C@H]1C(=O)C[C@H]2[C@@H]3CC=C4C[C@@H](O)CC[C@]4(C)[C@H]3CC[C@]12C`: under 5.00, 9.49%, 17.3%, 22.3% and 13.8%.
On to `C[C@H](CCC(=O)[C@@H](C)[C@H]1C(=O)C[C@H]2[C@@H]3CC=C4C[C@@H](O[C@@H]5O[C@@H](C)[C@H](O)[C@@H](O)[C@H]5O)CC[C@]4(C)[C@H]3CC[C@]12C)CO[C@@H]1O[C@@H](C)[C@H](O)[C@@H](O)[C@H]1O`, for which, in the experiment on HeLa [1], the pIC50 is under 5.00. In the experiment on HeLa [2], this compound had an inhibition at 0.01 µM of 7.19%. Also, in the experiment on HeLa [3], the inhibition at 1 µM came out at 21.2%. In addition, in the experiment with HeLa [4], testing at 10 µM gave an inhibition of 26.2%. Further, in the experiment with HeLa [5], 0.1 µM produced 14.3% inhibition.
For `C[C@H](CCC(=O)[C@@H](C)[C@H]1C(=O)C[C@H]2[C@@H]3CC=C4C[C@@H](O[C@@H]5OC[C@H](O)[C@H](O)[C@H]5O)CC[C@]4(C)[C@H]3CC[C@]12C)CO[C@@H]1OC[C@@H](O)[C@H](O)[C@H]1O`, in that order: under 5.00, 0.98%, 2.84%, 11.8% and 1.79%.
The matching figures for `C[C@H](CCC(=O)[C@@H](C)[C@H]1C(=O)C[C@H]2[C@@H]3CC=C4C[C@@H](O[C@@H]5OC[C@H](O)[C@H](O)[C@H]5O)CC[C@]4(C)[C@H]3CC[C@]12C)CO[C@@H]1OC[C@H](O)[C@H](O)[C@H]1O`: 5.37, 0.26%, 4.34%, 62% and 1.64%.

The values above are taken from ChEMBL document CHEMBL1146255, “Synthesis of bisdesmosidic kryptogenyl saponins using the 'random glycosylation' strategy and evaluation of their antitumor activity” (Bioorg Med Chem Lett, 2007).
